Experimental data published in patent publication US5849771A, “Phosphorylated nitrone derivatives, method for preparing same, and compositions containing said derivatives” (Centre National de la Recherche Scientifique (C.N.R.S.), priority 1995, dated 1998).
Like-named read-outs stand apart in the source and are kept apart here.

Legend:
[1] = Kinetics of decomposition (EPR) of superoxide trapping adducts (nitrone-OOH) in phosphate buffer medium; conditions: for Half-life time: decay of nitrone-OOH adduct, 0.1M phosphate buffer pH=5.8; for order of kinetics of disappearance of the adducts: phosphate buffer pH=5.8; for adduct degradation, times less quickly than the POBN--OOH adducts: phosphate buffer, relative to POBN--OOH
From the text: The adducts from trapping with the superoxide radical were produced using the riboflavin-DTPA (diethylenetriaminepentaacetic acid) system.
This system contains 1M of DTPA, […] of riboflavin and 0.1M of nitrone in a 0.1M phosphate buffer at pH=5.8.
This mixture is transferred into the cell of a Varian E-9 spectrometer. The cell is then irradiated to generate the superoxide radical in situ. At the end of irradiation the decrease in the adducts (nitrone-OOH) is studied using EPR analysis.

[2] = for adduct degradation, times more slowly than the POBN--OOH and PBN--OOH adducts: organic medium (DMF, pyridine), relative to POBN--OOH and PBN--OOH
From the text: The adducts from trapping with the superoxide radical were produced using the lumiflavin-DTPA system in pyridine, or dimethylformamide. This contains […] of DTPA, […] of lumiflavin and 0.1M of nitrone in pyridine or dimethylformamide.
The operating procedure followed for the study of the decrease of the adduct from trapping is the same as above.

[3] = physchem; conditions: for lipophilic/hydrophilic character: from partition coefficients, n-octanol/phosphate buffer; for logD at 1 h: n-octanol/10 mm phosphate buffer, pH 7.4
Method: Biol. Med. 14 (1993) 127. The partition coefficients are defined simply as the ratio of the nitrone concentration in the lipophilic phase (n-octanol) to the nitrone concentration in the aqueous phase.
Identical volumes (2 cm^3) of the octanolic nitrone solution prepared above and of a 10 mM phosphate buffer of pH=7.4 are agitated vigorously at 37° C. for 1 hour and the two phases are then separated by centrifuging (1000 g for 20 s) . The respective nitrone concentrations in each phase are then measured.

[4] = EPR spin trapping of O2^.-/HOO^. radicals (hypoxanthine/xanthine oxidase system); conditions: for EPR detection of trapping adduct: HOO^. radicals, hypoxanthine/xanthine oxidase, 0.1M phosphate buffer
Method: For the production of the HOO^. radicals the hypoxanthine/xanthine oxidase system is employed in a 0.1M phosphate buffer maintained at ambient temperature. The oxygen resulting in the formation of the HOO^. radicals is that initially dissolved in the 0.1M phosphate buffer.
The hypoxanthine/xanthine oxidase system contains 0.1M of a phosphate buffer, […] of hypoxanthine, 1 mM of diethylenetriaminepentaacetic acid (DTPA), 0.4 units cm^-3 of xanthine oxidase (marketed by the company Boehringer Mannheim Biochemica Co.), and 0.1M of the nitrone being tested. The EPR spectra of the adducts from trapping are recorded approximately 40 s after the addition of xanthine oxidase.
(§1) The stability of these adducts makes it possible to measure the respective coupling constants of the unpaired electron with the nuclei of nitrogen (AN), of hydrogen β to the nitrogen atom (AH) and of phosphorus (AP). These values have been shown together in Table 3 which follows: […]

[5] = EPR spin trapping of HO^. radicals (Fenton's method); conditions: phosphate buffer pH=7
Method: In this experiment the HO^. radicals were produced by Fenton's method in a 1.1M phosphate buffer at pH=7 in the presence of the […] system. This classical reaction for producing HO^. radicals can be expressed more simply as follows:
H2 O2 +Fe(II)→HO^. +HO-+Fe(III).
The EPR spectrum of the adduct from trapping is recorded approximately 40 s after addition of the ferrous sulphate.
as §1

[6] = cerebral ischaemia-reperfusion or cerebral aging; cited from earlier work

CCOP(=O)(OCC)C(C)(C)[N+]([O-])=Cc1cc[n+]([O-])cc1 [Example 2, Diethyl 1-[N-oxy-N-[4-(N'-oxypyridyl)formylene]amino]-1-methylethylphosphonate]
Half-life time [1]: 7.08 min | order of kinetics of disappearance of the adducts [1]: first order | adduct degradation, times less quickly than the POBN--OOH adducts [1]: approximately 20 times | Half-life time ([2]; DMF): 16.2 min | k ([2]; DMF): 0.714 ± 0.007 10^3 s^-1 | adduct degradation, times more slowly than the POBN--OOH and PBN--OOH adducts [2]: approximately three | Half-life time ([2]; pyridine): 21.05 min | k ([2]; pyridine): 0.549 ± 0.003 10^3 s^-1 | lipophilic/hydrophilic character [3]: lipophilic | logD at 1 h [3]: 2.29

CCOP(=O)(OCC)C(C)(C)[N+]([O-])=Cc1ccc(Cl)cc1 [Example 4, Diethyl 1-[[N-(4-chlorophenyl)formylene]-N-oxyamino]-1-methylethylphosphonate]
Half-life time ([2]; DMF): 15.2 min | adduct degradation, times more slowly than the POBN--OOH and PBN--OOH adducts [2]: approximately three | Half-life time ([2]; pyridine): 20.17 min | k ([2]; pyridine): 0.573 ± 0.001 10^3 s^-1 | lipophilic/hydrophilic character [3]: hydrophilic | logD at 1 h [3]: -0.745

CCOP(=O)(OCC)C(C)(C)[N+]([O-])=Cc1ccccc1 [Example 1, Diethyl 1-(N-benzylidene-N-oxy)amino-1-methylethyl-phosphonate]
Half-life time [1]: 5.12 min | order of kinetics of disappearance of the adducts [1]: first order | adduct degradation, times less quickly than the POBN--OOH adducts [1]: approximately 20 times | EPR detection of trapping adduct [4]: formation of the adducts | EPR detection of trapping adduct [5]: formation of the adducts

CC(C)(C)[N+]([O-])=Cc1ccccc1 [PBN, α-phenyl-tert-butylnitrone, reference compound]
Half-life time ([2]; DMF): 4.18 min | Half-life time ([2]; pyridine): 4.42 min | detection of the radical O2^.- ([4]; EPR spin trapping): cannot be carried out | EPR detection of trapping adduct [4]: No signal could be detected | EPR detection of trapping adduct [5]: No signal could be detected | reversal of the harmful effects of oxygen-containing free radicals [6]: particularly effective

CC(C)(C)[N+]([O-])=Cc1cc[n+]([O-])cc1 [POBN, α-(1-oxydopyridin-1-ium-4-yl)-N-tert-butylnitrone, reference compound]
Half-life time [1]: 0.317 min | order of kinetics of disappearance of the adducts [1]: first order | Half-life time ([2]; DMF): 5.05 min | Half-life time ([2]; pyridine): 5.23 min
